Structures can show the parent of a compound that is named as a salt.
Key:
[1] = molecular target: T1, human MCH receptor 1 (MCHR1) (Homo sapiens, UniProt Q99705); assay: human MCH receptor 1 (MCHR1) competitive binding assay with [125I]-MCH(4-19); conditions: test compound 0.1 μM, human MCHR1-expressing CHO cell membrane fraction, read-out: Binding inhibition rate % (0.1 μM)
T1 construct: expressed in transfected cells; host or cells: CHO cell clone 57 (membrane fraction)
How it was run: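 Membranes from CHO cells expressing human MCHR1 incubated with [125I]-MCH(4-19) and test compound in 20 mM Tris-HCl pH 7.5/5 mM EDTA with protease inhibitors, 1 hr at room temperature. Bound radioactivity collected on PEI-treated GF/C filters; % inhibition at 0.1 μM compound, nonspecific binding set with cold MCH(1-19).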

[2] = system: male diet-induced obese F344/Jcl rats; assay: Anorectic effect in male diet-induced obese F344/Jcl rats; format: in vivo, rat; conditions: 5 mg/mL suspension at 2 mL/kg, two administrations, food intake for 2 days vs control group; for inhibition in vivo at 5000 µg/mL, 10 mg/kg: Rattus norvegicus, po, 48 h, read-out: Food intake suppression rate (%)
Procedure: Evaluation of Anorectic Effect Using Male Diet-Induced Obese F344/Jcl Rats
Male diet-induced obese F344/Jcl rats (44-50 weeks old) fed with a high-fat diet (D12451: Research Diets) from 5 weeks old were used. From before the start of experiment, the rats were singly housed, given a powder high-fat diet (D12451M: Research Diets), and habituated to oral administration with tap water. The food intake from the evening of the day before the start of experiment to the next morning was measured, and the rats were grouped based on both the food intake and the body weight of the previous day. In the evening of the day of the start of experiment and the next day, 0.5% methylcellulose solution was orally administered to the control group, and 0.5% methylcellulose suspension (5 mg/mL) of the test compound was orally administered to the compound administration group at 2 mL/kg (6 per group for both control group and compound administration group). The food intake for 2 days from the initial administration was measured. The food intake inhibition rate of each compound administration group to the control group was calculated.

human MCHR1 = molecular target: T2, human MCHR1 (Homo sapiens, UniProt Q99705); assay: MCH receptor 1 antagonistic activity, Ca2+ mobilization assay; format: cell-based; conditions: CHO, test compound 0.1 μM; human MCHR1-expressing CHO cells (clone #4); ligand MCH(4-19) 2 nM; read-out: Inhibitory rate % (0.1 μM)
T2 construct: expressed in transfected cells; host or cells: CHO dhfr- cells, clone #4
How it was run: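 CHO dhfr− cells stably expressing human MCHR1 (clone #4) were used in a fluorometric Ca2+ mobilization assay. Test compounds were run at 0.1 μM, with antagonism expressed as percent inhibition.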

T2 sequence (Q99705 whole entry): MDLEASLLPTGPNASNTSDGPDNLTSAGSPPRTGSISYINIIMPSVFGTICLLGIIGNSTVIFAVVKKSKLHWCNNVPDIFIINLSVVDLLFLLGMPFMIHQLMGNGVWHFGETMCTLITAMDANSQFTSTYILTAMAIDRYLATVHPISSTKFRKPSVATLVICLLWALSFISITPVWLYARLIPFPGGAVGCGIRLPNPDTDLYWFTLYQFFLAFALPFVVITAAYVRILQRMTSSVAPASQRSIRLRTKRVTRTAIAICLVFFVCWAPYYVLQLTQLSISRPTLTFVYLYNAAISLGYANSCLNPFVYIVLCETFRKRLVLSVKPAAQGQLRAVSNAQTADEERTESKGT
T1 sequence (Q99705 whole entry): as above

SMILES | inhibition at 0.1 µM [1] [%] | inhibition at 0.1 µM (human MCHR1) [%] | inhibition in vivo at 5000 µg/mL, 10 mg/kg [2] [%] | Food intake suppression rate (%) ([2]; oral, hydrochloride)
Cn1c(C2CC2)nc2ccc(-n3ccc(OCc4ccc(Cl)cc4)cc3=O)cc21 [Example 10, 4-((4-Chlorobenzyl)oxy)-1-(2-cyclopropyl-1-methyl-1H-benzimidazol-6-yl)pyridin-2(1H)-one] | 89 | 99 | 58.1 | 
Cn1c(CC2CC2)nc2ccc(-n3ccc(OCc4ccc(F)cc4)cc3=O)cc21 [Example 15, 1-(2-(Cyclopropylmethyl)-1-methyl-1H-benzimidazol-6-yl)-4-((4-fluorobenzyl)oxy)pyridin-2(1H)-one] | 53 | 90 | 45.4 | 
Cc1c(C2CC2)nc2ccc(-n3ccc(OCc4ccc(C(F)(F)F)s4)cc3=O)cn12 [Example 160, 1-(2-Cyclopropyl-3-methylimidazo[1,2-a]pyridin-6-yl)-4-((5-(trifluoromethyl)thiophen-2-yl)methoxy)pyridin-2(1H)-one hydrochloride] |  |  |  | 22.7
Cn1c(C2CC2)nc2ccc(-n3ccc(OCc4ccccc4)cc3=O)cc21 [Example 9, 4-(Benzyloxy)-1-(2-cyclopropyl-1-methyl-1H-benzimidazol-6-yl)pyridin-2(1H)-one] | 72 | 100 | 14.8 | 
CCc1nc2ccc(-n3ccc(OCc4ccc(Cl)s4)cc3=O)cc2n1C [Example 49, 4-[(5-Chlorothiophen-2-yl)methoxy]-1-(2-ethyl-1-methyl-1H-benzimidazol-6-yl)pyridin-2(1H)-one] |  |  | 29.3 | 
CCc1nc2ccc(-n3ccc(OCc4csc(Cl)c4)cc3=O)cc2n1C [Example 51, 4-[(5-Chlorothiophen-3-yl)methoxy]-1-(2-ethyl-1-methyl-1H-benzimidazol-6-yl)pyridin-2(1H)-one] |  |  | 50 | 
Cn1c(C2CC2)nc2ccc(-n3ccc(OCc4ccc(C(F)(F)F)s4)cc3=O)cc21 [Example 242, 1-(2-Cyclopropyl-1-methyl-1H-benzimidazol-6-yl)-4-((5-(trifluoromethyl)-2-thienyl)methoxy)pyridin-2(1H)-one hydrochloride] |  |  | 17.4 | 
Cn1c([C@@H]2C[C@@H]2C(C)(C)O)nc2ccc(-n3ccc(OCc4ccc(Cl)cc4)cc3=O)cc21 (racemic) [Example 80, 4-((4-Chlorobenzyl)oxy)-1-(2-((1RS,2SR)-2-(2-hydroxypropan-2-yl)cyclopropyl)-1-methyl-1H-benzimidazol-6-yl)pyridin-2(1H)-one] | 91 | 99 |  | 
Cn1c(C2CC2(F)F)nc2ccc(-n3ccc(OCc4ccc(Cl)cc4)cc3=O)cc21 (stereo not shown) [Example 62, 4-((4-Chlorobenzyl)oxy)-1-(2-(2,2-difluorocyclopropyl)-1-methyl-1H-benzimidazol-6-yl)pyridin-2(1H)-one] | 63 | 57 |  | 
CC(=O)c1nc2ccc(-n3ccc(OCc4ccc(Cl)cc4)cc3=O)cc2n1C [Example 104, 1-(2-Acetyl-1-methyl-1H-benzimidazol-6-yl)-4-((4-chlorobenzyl)oxy)pyridin-2(1H)-one] | 60 | 61 |  | 
Cn1c(C2CC2)nc2ccc(-n3ccc(OCc4ccc(Cl)c(F)c4)cc3=O)cc21 [Example 131, 4-((4-Chloro-3-fluorobenzyl)oxy)-1-(2-cyclopropyl-1-methyl-1H-benzimidazol-6-yl)pyridin-2(1H)-one] | 78 |  | 44.3 | 
Cc1nc2ccc(-n3ccc(OCc4ccc(Cl)cc4)cc3=O)cc2n1C [Example 107, 4-((4-Chlorobenzyl)oxy)-1-(1,2-dimethyl-1H-benzimidazol-6-yl)pyridin-2(1H)-one] | 60 | 101 |  | 

Second part, led by results:

inhibition at 0.1 µM [1] [%] | inhibition at 0.1 µM (human MCHR1) [%] | SMILES | inhibition in vivo at 5000 µg/mL, 10 mg/kg [2] [%] | Food intake suppression rate (%) ([2]; oral, hydrochloride)
50 | 73 | Cn1c(C2CC2)nc2ccc(-n3ccc(OCc4csc(C(F)(F)F)n4)cc3=O)cc21 [Example 266, 1-(2-Cyclopropyl-1-methyl-1H-benzimidazol-6-yl)-4-((2-(trifluoromethyl)-1,3-thiazol-4-yl)methoxy)pyridin-2(1H)-one] | 20 | 
77 | 90 | Cc1nc2ccc(-n3ccc(OCc4csc(C(F)(F)F)c4)cc3=O)cc2n1C [Example 290, 1-(1,2-Dimethyl-1H-benzimidazol-6-yl)-4-((5-(trifluoromethyl)thiophen-3-yl)methoxy)pyridin-2(1H)-one] | 43.5 | 
71 | 97 | CCc1nc2ccc(-n3ccc(OCc4cc(C(F)(F)F)cs4)cc3=O)cc2n1C [Example 276, 1-(2-Ethyl-1-methyl-1H-benzimidazol-6-yl)-4-((4-(trifluoromethyl)-2-thienyl)methoxy)pyridin-2(1H)-one] | 57.9 | 
66 | 85 | Cn1c(C2CC2)nc2ccc(-n3ccc(OCc4csc(C(F)(F)F)c4)cc3=O)cc21 [Example 252, 1-(2-Cyclopropyl-1-methyl-1H-benzimidazol-6-yl)-4-((5-(trifluoromethyl)-3-thienyl)methoxy)pyridin-2(1H)-one] | 30.8 | 
75 | 89 | Cn1c(C2CC2)nc2ccc(-n3ccc(OCc4cc(C(F)(F)F)cs4)cc3=O)cc21 [Example 275, 1-(2-Cyclopropyl-1-methyl-1H-benzimidazol-6-yl)-4-((4-(trifluoromethyl)-2-thienyl)methoxy)pyridin-2(1H)-one] | 50.1 | 
58 | 73 | Cn1c(C2CC2)nc2ccc(-n3ccc(OCc4nc(CF)cs4)cc3=O)cc21 [Example 270, 1-(2-Cyclopropyl-1-methyl-1H-benzimidazol-6-yl)-4-((4-(fluoromethyl)-1,3-thiazol-2-yl)methoxy)pyridin-2(1H)-one] |  | 
83 | 105 | Cc1c(C2CC2)nc2ccc(-n3ccc(OCc4ccc(C(F)(F)F)s4)cc3=O)cn12 [Example 158, 1-(2-Cyclopropyl-3-methylimidazo[1,2-a]pyridin-6-yl)-4-((5-(trifluoromethyl)thiophen-2-yl)methoxy)pyridin-2(1H)-one] | 20.3 | 
75 | 104 | Cn1c(C2CC2)nc2ccc(-n3ccc(OCc4ccc(Br)cn4)cc3=O)cc21 [Example 260, 4-((5-Bromopyridin-2-yl)methoxy)-1-(2-cyclopropyl-1-methyl-1H-benzimidazol-6-yl)pyridin-2(1H)-one] |  | 
47 | 95 | Cn1c(C2CC2)nc2ccc(-n3ccc(OCc4csc(C(F)F)n4)cc3=O)cc21 [Example 287, 1-(2-Cyclopropyl-1-methyl-1H-benzimidazol-6-yl)-4-((2-(difluoromethyl)-1,3-thiazol-4-yl)methoxy)pyridin-2(^1H)-one] |  | 
56 | 99 | Cn1c(C2CC2)nc2ccc(-n3ccc(OCc4nc(C(F)F)cs4)cc3=O)cc21 [Example 283, 1-(2-Cyclopropyl-1-methyl-1H-benzimidazol-6-yl)-4-((4-(difluoromethyl)-1,3-thiazol-2-yl)methoxy)pyridin-2(1H)-one] |  | 

Reference: US9365540B2, “Benzimidazole derivatives as MCH receptor antagonists” (Takeda Pharmaceutical Company Limited, priority 2012, dated 2016)
